Type in all cases: biochemical
The target of test [1] is T1, ACE (Rattus norvegicus, UniProt P47820).
T1 construct: membrane fraction prepared from rat lung; from tissue; host or cells: rat lung, membrane fraction (method of Wu-Wong et al.)
T1 sequence (P47820 36-1313): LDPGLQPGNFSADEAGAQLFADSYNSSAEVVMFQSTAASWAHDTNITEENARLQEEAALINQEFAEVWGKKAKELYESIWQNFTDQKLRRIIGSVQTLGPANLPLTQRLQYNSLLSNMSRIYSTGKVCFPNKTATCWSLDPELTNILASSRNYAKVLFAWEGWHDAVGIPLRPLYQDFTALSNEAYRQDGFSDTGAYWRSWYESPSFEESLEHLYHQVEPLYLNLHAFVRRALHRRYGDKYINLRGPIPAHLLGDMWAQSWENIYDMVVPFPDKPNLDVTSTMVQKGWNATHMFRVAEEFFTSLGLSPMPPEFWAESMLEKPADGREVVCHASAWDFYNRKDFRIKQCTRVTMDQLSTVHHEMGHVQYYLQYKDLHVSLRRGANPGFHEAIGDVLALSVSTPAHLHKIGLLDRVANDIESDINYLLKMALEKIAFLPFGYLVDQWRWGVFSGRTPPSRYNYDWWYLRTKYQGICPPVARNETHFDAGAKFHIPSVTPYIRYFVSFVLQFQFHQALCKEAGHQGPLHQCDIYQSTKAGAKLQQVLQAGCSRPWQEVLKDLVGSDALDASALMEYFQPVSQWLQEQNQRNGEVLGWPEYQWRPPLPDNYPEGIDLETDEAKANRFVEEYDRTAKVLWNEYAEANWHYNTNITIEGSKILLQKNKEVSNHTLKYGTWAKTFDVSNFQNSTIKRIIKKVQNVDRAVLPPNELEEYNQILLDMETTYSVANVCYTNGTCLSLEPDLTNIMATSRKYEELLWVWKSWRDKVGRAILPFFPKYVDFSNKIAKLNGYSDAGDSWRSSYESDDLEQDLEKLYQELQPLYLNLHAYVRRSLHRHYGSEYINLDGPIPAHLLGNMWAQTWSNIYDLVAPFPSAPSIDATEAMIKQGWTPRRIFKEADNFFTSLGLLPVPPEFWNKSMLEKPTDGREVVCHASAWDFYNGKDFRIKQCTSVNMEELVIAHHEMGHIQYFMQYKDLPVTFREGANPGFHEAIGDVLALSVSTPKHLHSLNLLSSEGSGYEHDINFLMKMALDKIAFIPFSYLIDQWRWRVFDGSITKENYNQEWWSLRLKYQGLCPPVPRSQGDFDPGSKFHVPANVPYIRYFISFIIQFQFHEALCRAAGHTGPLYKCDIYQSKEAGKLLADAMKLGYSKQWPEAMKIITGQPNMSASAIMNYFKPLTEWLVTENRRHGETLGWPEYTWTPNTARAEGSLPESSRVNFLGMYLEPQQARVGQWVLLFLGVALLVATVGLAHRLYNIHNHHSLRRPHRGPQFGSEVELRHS
In words: ACE inhibition activity using rat lung (Experiment A-2). The following applies: rat lung membrane fraction, borate buffer pH 8.3. The protocol:
The ACE inhibition activity was determined by using a membrane fraction prepared from rat lung in accordance with the method of Wu-Wong et al. (Characterization of Endthelin Converting Enzyme in Rat Lung., Junshyum R. Wu-Wong, Gerald, P. Budzik, Edward M. Devine and Terry J. Opgenorth, Biochem. Biophys. Res. Commun., 1990, 171, 1291-1296.).
The ACE activity was determined with the use of a modification (modified to a borate buffer, pH 8.3) of the method of Cushman and Cheung (Spectrophotometric Assay and Properties of the Angiotensin-Converting Enzyme of Rabbit Lung., Cushman, D. W. and Cheung H. S., 1971, 20, 1637-1648.).
(§1) In the presence of ACE, the hippurate liberated from hippuryl-histidyl-leucine (Hippuryl-His-Leu (PeptideInstitute Inc., Japan)) was extracted with ethyl acetate and then the absorbance was measured at a wavelength of 228 nm.
With respect to the ACE inhibition activity, the inhibitor was added to the experimental system as described above in such a manner as to give the final concentrations of 1, 3, 10, 30, 100, 300 and 1000 nM, an inhibition curve was prepared, and then the concentration at which 50% inhibition was achieved was taken as IC50.

Test [2] deals with T2, NEP (Rattus norvegicus, UniProt P07861).
T2 sequence (P07861 1-750): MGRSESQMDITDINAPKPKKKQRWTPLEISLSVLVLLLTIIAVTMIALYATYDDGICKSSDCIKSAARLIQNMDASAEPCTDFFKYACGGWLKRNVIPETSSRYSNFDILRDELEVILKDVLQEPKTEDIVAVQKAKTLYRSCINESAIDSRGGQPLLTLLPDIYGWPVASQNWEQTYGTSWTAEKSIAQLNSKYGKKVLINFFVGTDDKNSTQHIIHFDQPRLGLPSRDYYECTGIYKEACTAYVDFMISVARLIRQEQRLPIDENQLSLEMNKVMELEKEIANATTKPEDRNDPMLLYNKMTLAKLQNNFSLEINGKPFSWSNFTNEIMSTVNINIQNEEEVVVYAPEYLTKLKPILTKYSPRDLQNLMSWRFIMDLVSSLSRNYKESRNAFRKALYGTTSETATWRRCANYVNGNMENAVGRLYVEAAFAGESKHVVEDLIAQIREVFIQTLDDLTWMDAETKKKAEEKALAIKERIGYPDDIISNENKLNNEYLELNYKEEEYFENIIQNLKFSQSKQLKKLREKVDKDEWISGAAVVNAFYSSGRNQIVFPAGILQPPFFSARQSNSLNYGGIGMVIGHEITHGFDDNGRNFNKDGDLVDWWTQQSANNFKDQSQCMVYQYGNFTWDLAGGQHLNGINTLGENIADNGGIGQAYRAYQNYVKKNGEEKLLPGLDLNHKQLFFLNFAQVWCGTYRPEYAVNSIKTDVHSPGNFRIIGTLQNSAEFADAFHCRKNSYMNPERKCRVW
In words: NEP inhibition activity using rat renal cortex (Experiment A-1). Details: membrane fraction prepared from rat renal cortex; from tissue; host or cells: rat renal cortex, membrane fraction (method of Booth and Kenny). The following applies: rat renal cortex membrane fraction. The protocol:
The NEP activity was determined by using a membrane fraction prepared from rat renal cortex in accordance with the method of Booth and Kenny (A Rapid Metod for the Purificaton of Microvilli from Rabbit Kidney., Andrew G. Booth and A. John Kenny, Biochem j., 1974, 142, […].).
The NEP activity was determined by the following manner in accordance with the method of Orlowsky and Wilk (Purification and Specificity of a Membrane-Bound Metalloendopeptidase from Bovine Pituitaries., Marian Orlowsky and Shrwin Wilk, Biochemistry, 1981, 20, 4942-4950.).
(§2) As a substrate, benzoyl-glycyl-arginyl-arginyl-2-naphthylamide (benzoyl-Gly-Arg-Arg-2-naphthylamide (Nova Biochem, Switzerland)) was used. In the presence of an NEP enzyme preparation and excessive leucine aminopeptidase (sigma chemical Co., U.S.A.), the liberated naphthylamine was made to undergo color development with first garnet (Sigma chemical Co., U.S.A.), followed by the measurement of the absorbance at a wavelength of 540 nm.
With respect to the NEP inhibition activity, the inhibitor was added to the experimental system as described above in such a manner as to give the final concentrations of 1, 3, 10, 30, 100, 300 and 1000 nM, an inhibition curve was prepared, and then the concentration at which 50% inhibition was achieved was taken as IC50.

Test [3] deals with T2, NEP. In words: NEP inhibition activity (Experiment C-1). The following applies: Table C-1. The protocol:
The NEP activity was determined by the following manner in accordance with the method of Orlowsky and Wilk (Purification and Specificity of a Membrane-Bound Metalloendpeptidase from Bovine Pituitaries., Marian Orlowsky and Shrwin Wilk, Biochemistry, 1981, 20, 4942-4950.).
as §2
With respect to the NEP inhibition activity, the test compound was added to the experimental system as described above in such a manner as to give the final concentrations of 1, 3, 10, 30, 100, 300 and 1000 nM, an inhibition curve was prepared, and then the concentration at which 50% inhibition was achieved was taken as IC50. As a comparative compound, [4S-[4α,7α(R*),12bβ]]-7-[(1-oxo-2-(S)-thio-3-phenyl-propyl)amino]-1,2,3,4,6,7,8,12b-octahydro-6-oxopyrido-[2,1-a][2]benzazepine-4-carboxylic acid was used.

Test [4] deals with T1, ACE. In words: ACE inhibition activity using rat lung (Experiment C-2). As to conditions: Table C-1; rat lung membrane fraction, borate buffer pH 8.3. The protocol: The ACE inhibition activity was determined by using a membrane fraction prepared from rat lung in accordance with the method of Wu-Wong et al. (Characterization of Endthelin Converting Enzyme in Rat Lung., Junshyum R. Wu-Wong, Gerald P. Budzik, Edward M. Devine and Terry J. Opgenorth, Biochem. Biophys. Res. Commun., 1990, 171, 1291-1296.).
The ACE activity was determined with the use of a modification (modified to a borate buffer, pH 8.3) of the method of Cushman and Cheung (Spectrophotometric Assay and Properties of the Angiotensin-Converting Enzyme of Rabbit Lung., Cushman D. W. and Cheung H. S., 1971, 20, 1637-1648.).
as §1
With respect to the ACE inhibition activity, the test compound was added to the reaction system as described above in such a manner as to give the final concentrations of 1, 3, 10, 30, 100, 300 and 1000 nM, an inhibition curve was prepared, and then the concentration at which 50% inhibition was achieved was taken as IC50. As a comparative compound, [4S-[4α,7α(R*),12bβ]]-7-[(1-oxo-2-(S)-thio-3-phenyl-propyl)amino]-1,2,3,4,6,7,8,12b-octahydro-6-oxopyrido-[2,1-a][2]benzazepine-4-carboxylic acid was used.

Test [5] concerns the target T2, NEP. In words: NEP inhibition activity (Experiment E-1). Also noted: membrane fraction prepared from rat renal cortex; from tissue; host or cells: rat renal cortex, membrane fraction (method of Booth and Kenny). As to conditions: rat renal cortex membrane fraction. As to the method: As a source of the enzyme NEP, a membrane fraction prepared from rat renal cortex in accordance with the method of Booth and Kenny (A Rapid Method for the Purification of Microvilli from Rabbit Kidney., Andrew G. Booth and A. John Kenny, Biochem. j., 1974, 142,575-581.) was employed. The NEP activity was determined in accordance with the method of Orlowsky and Wilk (Purification and Specificity of a Membrane-Bound Metalloendpeptidase from Bovine Pituitaries., Marian Orlowsky and Shrwin Wilk, Biochemistry, 1981, 20, 4942-4950.). Now the procedure will be briefly described.
As a substrate, benzoyl-glycyl-arginyl-arginyl-2-naphthylamide (benzoyl-Gly-Arg-Arg-2 naphthylamide (Nova Biochem, Switzerland)) was used. In the presence of an NEP enzyme preparation and excessive leucine aminopeptidase (sigma chemical Co., U.S.A.), the liberated naphthylamine was made to undergo color development with first garnet (Sigma chemical Co., U.S.A.), followed by the measurement of the absorbance at a wavelength of 540 nm.
(§3) To determine the NEP inhibition activity and the ACE inhibition activity, the inhibitor was added to the assay systems of both enzyme activities as described above in such a manner as to give the final concentrations of 1, 3, 10, 30, 100, […] and 1000 nM and inhibition curves were prepared. Then the concentration at which 50% inhibition was achieved was taken as IC50.

The target in test [6] is T1, ACE. In words: ACE inhibition activity (Experiment E-1). As to conditions: rat lung membrane fraction, pH 8.3. The protocol:
As a source of the enzyme ACE, a membrane fraction prepared from rat lung in accordance with the method of Wu-Wong et al. (Characterization of Endthelin Converting Enzyme in Rat Lung., Jinshyum R. Wu-Wong, Gerald, P. Budzik, Edward M. Devine and Terry J. Opgenorth, Biochem. Biophys. Res. Commun., 1990, 171, 1291-1296.) was used. The ACE activity was determined with the use of a modification (modified to a borate buffer pH 8.3) of the method of Cushman and Cheung (Spectrophotometric Assay and Properties of the Angiotensin-Converting Enzyme of Rabbit Lung., Cushman D. W. and Cheung H. S., 1971, 20, 1637-1648.). Now the procedure will be briefly described.
as §1, §3

The values below come from patent US5679671A, “Amino acid derivative” (Eisai Co., Ltd., priority 1993, dated 1997).

For the compound `O=C(O)CN1C(=O)C(NC(=O)[C@@H](S)Cc2ccccc2)CCc2ccc(-c3ccccc3)cc21` (stereo partly drawn) [Example A-3, 1-Carboxymethyl-3-[(S)-2-mercapto-3-phenylpropionylamino]-8-phenyl-1H-[1]benzazepin-2-one], the IC50 against ACE [1] worked out at 50 nM; on NEP [2] it was 90 nM.

Consider `CC(C)[C@H](S)C(=O)NC1CCc2ccc(-c3ccccc3)cc2N(CC(=O)O)C1=O` (stereo partly shown) [Example A-5], for which the results for the IC50 on ACE [1] and at NEP [2] were 50 nM and 160 nM, respectively.

Regarding `O=C(O)CN1C(=O)C(NC(=O)[C@@H](S)Cc2ccccc2)CCc2ccccc21` (stereo partly drawn) [Example A-7, 1-Carboxymethyl-3-[(S)-2-mercapto-3-phenylpropionylamino]1H-[1]benzazepin-2-one], the figures for the IC50 on ACE [1] and at NEP [2] were 10 nM and 8.2 nM, respectively.

On to `CC[C@H](C)[C@H](S)C(=O)N[C@H]1Cc2ccc(NS(C)(=O)=O)cc2[C@H]2CCC[C@@H](C(=O)O)N2C1=O` [Example C-15, [4S-[4α,7α(R*),12bβ]]-11-Methylsulfonylamino-7-[[(2S,3S)-3-methyl-1-oxo-2-thiopentyl]amino]-6-oxo-1,2,3,4,6,7,8,12b-octahydropyrido[2,1-a][2]benzazepine-4-carboxylic acid], for which the concentration for half-maximal inhibition (IC50) came out at 6.6 nM at NEP [3] and 12.5 nM at ACE [4].

For the compound `COc1ccc(C[C@H](S)C(=O)N[C@H]2Cc3ccc(-c4ccccc4)cc3[C@H]3CCC[C@@H](C(=O)O)N3C2=O)cc1` [Example E-7, [4S-[4α,7α(R*),12bβ]]-7-[(S)-2-Mercapto-3-(4-methoxyphenyl)propionylamino]-6-oxo-11-phenyl-1,2,3,4,6,7,8,12b-octahydropyrido[2.1-a][2]benzazepine-4-carboxylic acid], the concentration for half-maximal inhibition (IC50) against NEP [5] was 45 nM; against ACE [6] it was 11 nM.

The IC50 is the concentration that inhibits the measured activity by half.
